One compound from patent US20170166974A1, “METHOD FOR THE TREATMENT OF MULTIPLE MYELOMA” (Erasmus University Medical CEnter Rotherdam, priority 2014, published 2017) can be followed below.

For the assay, the system named is multiple myeloma patients. Put plainly: Survival analysis (PFS and OS) of multiple myeloma patients by molecular cluster, HOVON-65/GMMG-HD4 phase III trial, PAD vs VAD. It is filed as in vivo, human. Here is the method:
Survival analysis was performed on a group of 301 MM patients, treated with Bortezomib (treated with PAD, a combination of bortezomib, adriamycin, and dexamethasone)) or conventional therapy (treated with VAD, a combination of vincristine, adriamycin, and dexamethasone). The patient group was stratified into ten clusters (Table 1).
A total number of 833 patients were included in a large prospective, randomized, phase III trial (HOVON-65/GMMG-HD4). Patients were randomly assigned to three cycles of induction treatment with vincristine, doxorubicin, and dexamethasone (VAD), or Bortezomib, doxorubicin, and dexamethasone (PAD). Both groups received high-dose melphalan with autologous stem-cell rescue followed by maintenance treatment with thalidomide (group assigned to VAD) or Bortezomib (group assigned to PAD) for 2 years (Sonneveld et al., J. Clin. Oncol. Vol. 30, 24:2946-2955, 2012).
The gene expression dataset GSE19784 was used, derived from patients included in the HOVON-65/GMMG-HD4 trial (Broyl et al., Blood 2010 116:2543-2553). A total number of 320 patients were included in the molecular classification and follow-up data were available for 319 patients. Clusters with less than ten patients were not included in this study, the total number of patients was, therefore, 301 (Table 1). Progression-free survival (PFS) was calculated from randomization until progression, relapse or death, whichever came first. Patients who received a non-myeloablative allogeneic stem cell transplantation (AlloSCT) were censored at the date of AlloSCT. Overall survival (OS) was measured from randomization until death from any cause. Patients alive at the date of last contact were censored. The median follow-up was 41 months. Survival analysis was performed using the SPSS software. Kaplan
Meier analysis was performed using the log rank test to assess for significance in survival time between clusters.

On to `CC(C)C[C@H](NC(=O)[C@H](Cc1ccccc1)NC(=O)c1cnccn1)B(O)O` [Bortezomib], for which the “median PFS” value is 32 months (CD-2 cluster); 27 months (MF cluster); 32 months (Myeloid cluster); 32 months (NF-κB cluster); 19 months (PR cluster). The “difference in median PFS, conventional vs Bortezomib” value is, setting by setting: (CTA cluster) “no difference”; (hyperdiploid cluster) “no difference”. The “median OS” value runs as follows: (MF cluster) 54 months; (MS cluster) more than 41 months; (PR cluster) 22 months. Further, under “MS cluster”, the “PFS longer than in conventional treatment group” value is listed as 6 months.
